Assay results reported in publication PMC4006925, “Squalene Synthase As a Target for Chagas Disease Therapeutics” (PLoS Pathogens, 2014).
Where two headings read alike, the source gives them in different places.

Key:
[1] = tested on: T. cruzi epimastigotes; experiment: Sterol composition of T. cruzi epimastigotes, GC-MS; assay type: cell-based, Trypanosoma cruzi; details: 4 µM compound
Procedure: . Cells from cultures (96 h incubation) were washed with Buffer A with glucose (116 mM NaCl, 5.4 mM KCl, 0.8 mM MgSO4, 5.5 mM D-glucose, and 50 mM HEPES at pH 7.0) then pelleted and chloroform/methanol (2∶1 v/v) added (∼30 mL of solvent per gram of wet cells) followed by vigorous stirring and overnight incubation at 4°C. The extract was then filtered using Whatman #2 paper to eliminate insoluble material, and the filtrate (a single phase) dried under nitrogen. The extract was then re-extracted using chloroform/methanol 9/1 v/v, dried under nitrogen, dissolved in 1 mL of pure chloroform and re-dried under nitrogen gas. The extracted lipids were saponified with 5 mL of ethanolic-potassium hydroxide (5 g KOH, 7 mL water, 14 mL ethanol) for 1 hour at 80°C. After cooling, 2.5 mL of water and 1.5 mL hexane were added and the phases allowed to separate. […] Samples were analyzed on a 30 m DB5 column with 0.32 mm I.D. and 0.25 µm film thickness (Agilent Inc, Palo Alto, CA, USA) with an injection port temperature of 300°C, the interface was set to 300°C, the ion source adjusted to 230°C, MS Quadrupole 150°C. […] The spectra of all chromatogram peaks were evaluated by using the HP Chemstation (Agilent, Palo Alto, CA, USA) program. Identifications and quantifications were performed using mass spectra obtained from authentic standards and with NIST08 and W8N08 libraries (John Wiley & Sons, Inc., USA).

[2] = tested on: Vero cells; experiment: Vero (host) cell proliferation, alamarBlue; assay type: cell-based; details: read-out: IC50 Vero cells (host cell growth)
Procedure: Vero cells (1.7×10^4 cells/well) were seeded in 96 well plates (black, clear bottom from Greiner Bio-One Cat#655090) in 100 µL RPMI media (Sigma Cat# R-4130) with 10% FBS. Plates were tested as described by Recher et al.

[3] = tested on: T. cruzi; experiment: Rescue from T. cruzi cell growth inhibition by farnesol or geranylgeraniol; assay type: cell-based, Trypanosoma cruzi
[4] = tested on: T. cruzi epimastigotes; experiment: UQ9 biosynthesis in epimastigotes, LC-MS; assay type: cell-based, Trypanosoma cruzi
Procedure: For ubiquinone extraction, epimastigotes (1 g wet weight) were washed twice with buffer A with glucose (116 mM NaCl, 5.4 mM KCl, 0.8 mM MgSO4, 5.5 mM D-glucose, and 50 mM HEPES at pH 7.0). To break the cells, the pellets were frozen in a dry ice-100% ethanol bath (for 7 min) and thawed at 37°C (for 3 min) for a total of 5 times. One volume of water and three volumes of 1-propanol were added to the pellet. The samples were vortexed for 30 sec at room temperature and allowed to stand for one minute. Two volumes of n-hexane were added, the mixture vortexed for 30 sec at room temperature, then centrifuged at 12,000× g for 5 min. The upper phase, containing ubiquinone, was collected into a glass tube, and dried under nitrogen gas, then analyzed using LC-MS.
LC/MS was performed using an Agilent LC/MSD Trap XCT Plus system (Agilent Technologies, Santa Clara, CA) with an 1100 series HPLC system including a degasser, an auto-sampler, a binary pump, and a multiple-wavelength detector. The LC separation used a Phenomenex Gemini 3u C18 110A column (2 mm×100 mm) (Torrence, CA) with mobile phase A (0.1% formic acid in water) and mobile phase B (0.1% formic acid in acetonitrile). The flow-rate was 0.25 mL/min. The linear gradient was as follows: 0–1 min, 100% A; 7–50 min, 0% A; 51–56 min, 100% A. The auto-sampler was set at 5°C and the injection volume was 15 µL. UV signals were recorded at 275 nm. […]

[5] = tested on: T. cruzi amastigotes; experiment: T. cruzi amastigote cell growth inhibition in Vero cells; assay type: cell-based, Trypanosoma cruzi; details: means ± SD from 2 or 3 independent experiments, day 3 post-infection
Procedure: Gamma-irradiated (2,000 Rads) Vero cells (3.4×10^4 cells/well) were seeded in 96 well plates (black, clear bottom plates from Greiner Bio-One) in 100 µL RPMI media (Sigma) with 10% FBS. Plates were incubated overnight at 35°C and 7% CO2. […] After infection, cells were washed once with Hanks solution (150 µL/well) to eliminate any extracellular parasites, and compounds were added in serial dilutions in RPMI media in 150 µL volumes. Each dilution was tested in quadruplicate. Each plate also contained controls with host cells and no parasites (for a background check), and controls with parasites and no drugs (positive control). […] For each set of experiments, benznidazole was used as a positive control. After drug addition, plates were incubated at 35°C and 7% CO2. At day 3 post-infection, plates were assayed for fluorescence and IC50 values were determined by non-linear regression analysis using SigmaPlot.

[6] = target: T1, TcFPPS (Trypanosoma cruzi, UniProt Q95WL3); experiment: T. cruzi FPPS inhibition; assay type: biochemical
T1 sequence (Q95WL3 1-362): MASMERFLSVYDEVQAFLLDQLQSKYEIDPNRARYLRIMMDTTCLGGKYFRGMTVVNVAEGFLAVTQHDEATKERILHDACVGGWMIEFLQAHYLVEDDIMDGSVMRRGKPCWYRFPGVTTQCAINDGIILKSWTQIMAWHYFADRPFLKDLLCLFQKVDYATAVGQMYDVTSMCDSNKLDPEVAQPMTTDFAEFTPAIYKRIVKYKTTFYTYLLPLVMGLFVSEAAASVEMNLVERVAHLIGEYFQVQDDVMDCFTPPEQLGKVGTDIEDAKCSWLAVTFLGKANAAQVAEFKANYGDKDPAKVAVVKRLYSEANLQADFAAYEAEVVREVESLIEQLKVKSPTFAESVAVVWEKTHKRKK
Procedure: For FPPS inhibition we used the methods described previously. The condensation of geranyl diphosphate (100 µM) and isopentenyl diphosphate (100 µM) was monitored at room temperature by using a continuous spectrophotometric assay for phosphate releasing enzymes. The reaction buffer contained 50 mM Tris-HCl, pH 7.4, 1 mM MgCl2, and 0.01% Triton X100. The compounds investigated were pre-incubated with enzyme for 30 min at room temperature. The IC50 values were obtained from fitting dose-response curve using Prism 4.0 (GraphPad Software, Inc., La Jolla, CA, www.graphpad.com).

[7] = target: TcSQS (Trypanosoma cruzi, UniProt Q4CWB4); experiment: biochemical; assay type: biochemical
TcSQS, sequence (Q4CWB4 entry or part of it): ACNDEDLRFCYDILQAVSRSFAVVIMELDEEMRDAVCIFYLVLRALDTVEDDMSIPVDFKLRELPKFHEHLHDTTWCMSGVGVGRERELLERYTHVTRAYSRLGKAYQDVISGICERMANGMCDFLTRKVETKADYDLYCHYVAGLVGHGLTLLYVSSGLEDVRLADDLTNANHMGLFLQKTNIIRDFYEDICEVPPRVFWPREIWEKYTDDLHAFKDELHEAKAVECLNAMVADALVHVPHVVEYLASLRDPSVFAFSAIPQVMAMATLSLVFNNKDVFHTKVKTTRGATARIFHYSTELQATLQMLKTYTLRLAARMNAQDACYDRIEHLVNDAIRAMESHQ
Procedure: (§1) Initial SQS enzyme inhibition assays were carried out, in duplicate, in 96-well plates, with a total of 200 µL of reaction mixture in each well. Reactions were monitored by using a continuous spectrophotometric assay for phosphate releasing enzymes. […] The compounds investigated were pre-incubated with 2 µg of SQS for 30 min at 20°C. The IC50 values were obtained by fitting the inhibition data to a normal dose–response curve, using GraphPad PRISM, version 4.0, software for Windows (GraphPad Software Inc., San Diego, CA, www.graphpad.com). We then verified the results by using a radioactivity assay using ^3H-labelled FPP as substrate. […] The enzymes were incubated with inhibitor for 10 minutes before addition of the substrates. The reaction was allowed to continue at 37°C for 15 minutes and then terminated with 50 µL of 0.1 M NaOH/methanol. The product was extracted with 500 µL of hexanes and 300 µL of the organic layer was measured by scintillation counting.

[8] = target: T2, HsSQS (Homo sapiens, UniProt P37268); experiment: Human squalene synthase inhibition; assay type: biochemical
T2 construct: His-tag; made in house
T2 sequence (P37268 1-417): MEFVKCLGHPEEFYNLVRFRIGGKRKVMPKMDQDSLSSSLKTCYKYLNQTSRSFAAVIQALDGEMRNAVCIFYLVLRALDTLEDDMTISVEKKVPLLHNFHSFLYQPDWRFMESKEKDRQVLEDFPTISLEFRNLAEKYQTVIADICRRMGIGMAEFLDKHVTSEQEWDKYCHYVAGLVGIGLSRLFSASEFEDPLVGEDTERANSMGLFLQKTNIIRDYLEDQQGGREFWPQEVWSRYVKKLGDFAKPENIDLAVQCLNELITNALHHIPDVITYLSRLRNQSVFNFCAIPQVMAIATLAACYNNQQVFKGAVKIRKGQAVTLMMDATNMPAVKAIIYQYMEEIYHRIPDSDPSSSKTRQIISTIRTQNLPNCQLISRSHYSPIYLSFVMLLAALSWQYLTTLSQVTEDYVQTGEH
Procedure: as §1

[9] = tested on: LmSQS; design: method as in PMID 18765694; details: cited from earlier work
[10] = target: T2, HsSQS; design: method as in PMID 1464749; details: cited from earlier work

SMILES | IC50 [5] [µM] | IC50 [6] [µM] | IC50 [7] [µM] | IC50 [8] [µM] | other results
CCCCCCCCCC[n+]1ccn(CC(P(=O)([O-])O)P(=O)(O)O)c1 (stereo not shown) [BPH-1218] |  |  |  |  | endogenous ergosterol and the three major ergosterol related sterols, % of total sterols ([1]; without compound 36%): 15%; content of exogeneously-acquired cholesterol, % of total sterols ([1]; without compound 51%): 71%; IC50 ([2]; Chlorocebus sabaeus, Vero): ~1 mM; rescue afforded by farnesol [3]: no “rescue”; rescue by geranylgeraniol ([3]; geranylgeraniol at 40 µM): ~20%; decrease in UQ9 biosynthesis [4]: ~40%
CCCCCCCCC[n+]1ccn(CC(O)(P(=O)([O-])O)P(=O)(O)O)c1 (stereo not shown) [BPH-1238] | 7 ± 1 | 0.22 | 0.021 | 0.075 | IC50 [2]: 0.19 ± 0.04 mM
CCCCCCCCCCCC[n+]1ccn(CC(O)(P(=O)([O-])O)P(=O)(O)O)c1 (stereo not shown) [BPH-1269] | 3 ± 0.02 | 0.74 | 0.046 | 0.13 | IC50 [2]: > 0.125 mM
CCCCCCCCCCCCC[n+]1ccn(CC(O)(P(=O)([O-])O)P(=O)(O)O)c1 (stereo not shown) [BPH-1322] | 1.2 ± 0.3 | 1.07 | 0.064 | 0.18 | IC50 [2]: 0.1 ± 0.04 mM
CCCCCCCCCCCCCCCn1cc[n+](CC(O)(P(=O)([O-])O)P(=O)(O)O)c1 (stereo not shown) [BPH-1325] |  | > 5 | 0.1 | 0.27 | IC50 ([5]; Trypanosoma cruzi, Vero, 72 h): 3 ± 1 µM; IC50 ([2]; Chlorocebus sabaeus, Vero): 0.065 ± 0.018 mM
CCCCCCCCC[n+]1ccn(CC(P(=O)([O-])O)P(=O)(O)O)c1 (stereo not shown) [BPH-1327] | 10 ± 2 | 0.085 | 0.016 | 0.1 | IC50 ([2]; in mM): ~1 mM
CCCCCCCCCCC[n+]1ccn(CC(P(=O)([O-])O)P(=O)(O)O)c1 (stereo not shown) [BPH-1328] | 4 ± 1.3 | 0.39 | 0.01 | 0.11 | IC50 ([2]; in mM): ~1 mM
CCCCCCCCCCCCC[n+]1ccn(CC(P(=O)([O-])O)P(=O)(O)O)c1 (stereo not shown) [BPH-1329] | 1.1 ± 0.1 | 0.91 | 0.058 | 0.22 | IC50 ([2]; in mM): ~1 mM
CCCCCCCCCCCCCC[n+]1ccn(CC(O)(P(=O)([O-])O)P(=O)(O)O)c1 (stereo not shown) [BPH-1338] | 1.2 ± 0.1 | > 5 | 0.12 | 0.24 | IC50 [2]: 0.051 ± 0.01 mM
CCCCCCCCCCCCCCCn1cc[n+](CC(P(=O)([O-])O)P(=O)(O)O)c1 (stereo not shown) [BPH-1344] |  | > 5 | 0.14 | 0.26 | IC50 ([5]; Trypanosoma cruzi, Vero, 72 h): 1 ± 0.1 µM; IC50 ([2]; Chlorocebus sabaeus, Vero): ~1 mM
CO[C@H]1CN(c2ccc(C#C[C@@]3(O)CN4CCC3CC4)c(Cc3ccccc3)n2)C[C@H]1O [E5700] |  |  |  |  | inhibition of LmSQS [9]: nanomolar/sub-nanomolar range
COCCCOc1ccc(C#C[C@@]2(O)CN3CCC2CC3)c(Cc2ccccc2)n1 [ER119884] |  |  |  |  | inhibition of LmSQS [9]: nanomolar/sub-nanomolar range
CCCCCN(C)CCC(O)(P(=O)(O)O)P(=O)(O)O [ibandronate] |  |  |  |  | K i values, human SQS [10]: low nM
O=P(O)(O)C(NC1CCCCCC1)P(=O)(O)O [incadronate] |  |  |  |  | K i values, human SQS [10]: low nM
